Reference: the supplement of paper PMC4862054

How the values were obtained:
[1] = test system: DU-4475; assay: normalised viability (% of control), CellTiter-Blue; higher = more viable cells (about 100 = DMSO control); conditions: incubation time: 72 h
Method in brief: (§1)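 Plates were quality-checked by Z'-factor and normalised to vehicle (100) and a positive kill control (0). The underlying assay incubated breast cancer cell lines for 72 h on 384-well plates with compound, then added 2.5 µl CellTiter-Blue for 2 h at 37 °C and read at 560/590 nm. The value is normalised viability at a single listed concentration of the series.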

[2] = test system: HCC1599; assay: as above; conditions: incubation time: 72 h
Method in brief: as §1

[3] = test system: CAL-148; assay: as above; conditions: incubation time: 72 h
Method in brief: as §1

[4] = test system: BT-474; assay: as above; conditions: incubation time: 72 h
Method in brief: as §1

[5] = test system: HCC1937; assay: as above; conditions: incubation time: 72 h
Method in brief: as §1

[6] = test system: MDA-MB-468; assay: as above; conditions: incubation time: 72 h
Method in brief: as §1

[7] = test system: MDA-MB-453; assay: as above; conditions: incubation time: 72 h
Method in brief: as §1

[8] = test system: BT-549; assay: as above; conditions: incubation time: 72 h
Method in brief: as §1

[9] = test system: Hs578T; assay: as above; conditions: incubation time: 72 h
Method in brief: as §1

[10] = test system: HDQ-P1; assay: as above; conditions: incubation time: 72 h
Method in brief: as §1

[11] = test system: MDA-MB-231; assay: as above; conditions: incubation time: 72 h
Method in brief: as §1

[12] = test system: MFM-223; assay: as above; conditions: incubation time: 72 h
Method in brief: as §1

[13] = test system: SK-BR-3; assay: as above; conditions: incubation time: 72 h
Method in brief: as §1

[14] = test system: CAL-85-1; assay: as above; conditions: incubation time: 72 h
Method in brief: as §1

[15] = test system: CAL-148; conditions: 72 h
Method in brief: (§2)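 Each 384-well plate was pre-loaded with compound dissolved in 5 µl medium, received breast cancer cells in 20 µl suspension, and was incubated 72 h. A 2.5 µl addition of CellTiter-Blue for 2 h at 37 °C was followed by a fluorescence read at 560/590 nm. Data were normalised per plate to vehicle and a positive kill control and checked by Z'-factor. EC50 was fitted from the percent-inhibition dose-response curve, censored at the highest concentration, excluding rows with a drug sensitivity score of zero.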

[16] = test system: CAL-51; conditions: 72 h
Method in brief: as §2

[17] = test system: CAL-148; assay: drug sensitivity score (DSS), CellTiter-Blue viability (DSS (AUC-based score)); higher = stronger viability inhibition; extreme values may be limits of the assay; conditions: incubation time: 72 h
Procedure: (§3)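 DSRT with the CellTiter-Blue (resazurin reduction) viability readout, fluorescence 560/590 nm, 72 h incubation. Plates were normalised to DMSO and benzethonium chloride controls. DSS is computed from the area under the fitted dose-response curve (5 or 9 concentrations).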

[18] = test system: MDA-MB-468; assay: as above; conditions: incubation time: 72 h
Procedure: as §3

[19] = test system: CAL-51; assay: as above; conditions: incubation time: 72 h
Procedure: as §3

[20] = test system: CAL-120; assay: as above; conditions: incubation time: 72 h
Procedure: as §3

[21] = test system: HCC1143; assay: as above; conditions: incubation time: 72 h
Procedure: as §3

[22] = test system: HDQ-P1; assay: as above; conditions: incubation time: 72 h
Procedure: as §3

[23] = test system: SK-BR-3; assay: as above; conditions: incubation time: 72 h
Procedure: as §3

[24] = test system: CAL-85-1; assay: as above; conditions: incubation time: 72 h
Procedure: as §3

COc1cccc2c1C(=O)c1c(O)c3c(c(O)c1C2=O)C[C@@](O)(C(=O)CO)C[C@@H]3O[C@H]1C[C@H](N)[C@H](O)[C@H](C)O1 [Doxorubicin]
normalised viability [%]
Conditions	0.3 nM	1 nM	3 nM	10 nM	100 nM	1000 nM
[1]	93.8	–	91.6	64	–	–
[2]	–	93	–	–	74.8	59
[3]	86.5	–	93	73.6	–	–
[4]	–	97.3	–	–	84.7	34.1
[5]	–	86.6	–	–	37	22.2
[6]	–	99.7	–	–	65.9	4.32
[7]	105	–	102	101	–	–
[8]	–	114	–	–	76.5	5.36
[9]	–	115	–	–	71.3	6.05
[10]	104	–	96.8	93	–	–
[11]	–	85.1	–	–	64.4	25.8
[12]	–	91.8	–	–	98	21.4
[13]	–	87.9	–	–	41.3	8.28
[14]	90	–	92.3	90.4	–	–

Conditions	EC50, CellTiter-Blue viability [nM]	drug sensitivity score
[15]	53.3	–
[16]	164	–
[17]	–	14.2
[18]	–	9.27
[19]	–	8.73
[20]	–	11.3
[21]	–	8.86
[22]	–	7
[23]	–	13.3
[24]	–	5.11

COc1cc(Nc2ncc3c(n2)-c2ccc(Cl)cc2C(c2c(F)cccc2OC)=NC3)ccc1C(=O)O [MLN8237]
normalised viability [%]
Conditions	3 nM	10 nM	30 nM	100 nM	1000 nM	10000 nM
[1]	98.3	–	82.6	37.5	–	–
[2]	–	103	–	–	87.7	66.9
[3]	86.7	–	89.9	78.1	–	–
[4]	–	103	–	–	82.9	58.5
[5]	–	68	–	–	40	42.2
[6]	–	96.7	–	–	42.6	35.2
[7]	91.8	–	50.2	44.3	–	–
[8]	–	103	–	–	62.6	32.6
[9]	–	113	–	–	59.2	45.6
[10]	102	–	82.2	64	–	–
[11]	–	101	–	–	58	33.3
[12]	–	79.3	–	–	50.7	30.8
[13]	–	87.3	–	–	59.5	46.8
[14]	89	–	80.6	69.4	–	–

Conditions	EC50, CellTiter-Blue viability [nM]	drug sensitivity score
[15]	184	–
[16]	111	–
[17]	–	15
[18]	–	15.8
[19]	–	18.1
[20]	–	10.7
[21]	–	10.4
[22]	–	14.2
[23]	–	16.7
[24]	–	11.9

COc1cccc2cc(-c3nc([C@H]4CC[C@H](C(=O)O)CC4)n4ncnc(N)c34)[nH]c12 [OSI-027]
normalised viability [%]
Conditions	3 nM	10 nM	30 nM	100 nM	1000 nM	10000 nM
[1]	96.6	–	92.5	82.5	–	–
[2]	–	106	–	–	72.4	47
[3]	86.7	–	87.5	82.2	–	–
[4]	–	106	–	–	54.2	25.9
[5]	–	71.7	–	–	59.8	33.9
[6]	–	87.8	–	–	66.4	22
[7]	79	–	88.2	71.6	–	–
[8]	–	98.9	–	–	76	16.1
[9]	–	99.4	–	–	59.1	23.6
[10]	78.3	–	80.4	76.8	–	–
[11]	–	87.4	–	–	69.4	25.9
[12]	–	101	–	–	34.9	16
[13]	–	93.7	–	–	19	13.1
[14]	95.4	–	83.2	100	–	–

Conditions	EC50, CellTiter-Blue viability [nM]	drug sensitivity score
[15]	1640	–
[16]	1580	–
[17]	–	9.33
[18]	–	6.33
[19]	–	9.33
[20]	–	8.32
[21]	–	7.21
[22]	–	14.9
[23]	–	21.7
[24]	–	9.36
